In publication PMC4657044, “Live detection and purification of cells based on the expression of a histone chaperone, HIRA, using a binding peptide” (Scientific Reports, 2015):
No end group written: not given here.

How the values were obtained:
HSC-4 cells [1] = assay: FACS of fixed HSC-4 cells with and without saponin permeabilization; format: cell-based, human; conditions: fixed (4% PFA) HSC-4 cells, 10 μM FITC-labelled peptide, with or without 0.3% saponin, buffer with 1% FBS, 1 h at room temperature; FACS fluorescence
Method: (§1) TM2-FITC was used for FACS analyses with and without permeabilization of fixed HSC-4 cells using saponin. […] To check whether it can be used for live sorting, live HSC-4 cells were stained with the peptide and analyzed by FACS. […] The live uptake of TM2-FITC by HSC-4 monolayer cells was visualized under microscope immediately after washing off the staining solution (Fig. 2c).
(§2) FACS analysis was performed as reported previously. Monolayer cells were trypsinized and fixed using 4% PFA, and peptide labeled with FITC (10 μM) was added to the cells in presence or absence of 0.3% saponin in a buffer containing 1%FBS, and incubated for one hour at room temperature. For live sorting, the cells were resuspended in 75 μl of PBS containing the peptide for one hour. Cells were diluted with 200 μl of PBS and sorted immediately using FACS Aria II.

[2] = test system: wild type and Hira-/- ES cells; assay: Live uptake by ES cells under the confocal microscope; format: cell-based, mouse; conditions: live wild type and Hira-/- ES cells grown in confocal dishes, TM2-FITC; fluorescence microscopy
From the text: as §1
(a) The FACS profile of fixed HSC-4 cells stained with TM2-FITC. (b) Live cells were stained with the TM2-FITC as described under methods and analyzed in FACS Aria II. (c) HSC-4 cells were grown in confocal dishes and incubated with TM2-FITC diluted in PBS for 1 h. Prior to imaging the cells were briefly washed and imaged (d) ES cells were grown in confocal dishes and stained using TM2-FITC. Hoechst 33342 dye was used to visualize the nucleus. The scale bar represents 10 μm.

HIRA [3] = target: T1, HIRA (Mus musculus, UniProt Q61666); assay: Immunofluorescence of fixed and permeabilized wild type and Hira-/- W9.5 ES cells; format: cell-based; conditions: fixed and permeabilized mouse W9.5 wild type versus Hira-/- ES cells; confocal microscopy
T1 construct: endogenous in cells; host or cells: mouse W9.5 ES cells (wild type)
T1 sequence (Q61666 whole entry): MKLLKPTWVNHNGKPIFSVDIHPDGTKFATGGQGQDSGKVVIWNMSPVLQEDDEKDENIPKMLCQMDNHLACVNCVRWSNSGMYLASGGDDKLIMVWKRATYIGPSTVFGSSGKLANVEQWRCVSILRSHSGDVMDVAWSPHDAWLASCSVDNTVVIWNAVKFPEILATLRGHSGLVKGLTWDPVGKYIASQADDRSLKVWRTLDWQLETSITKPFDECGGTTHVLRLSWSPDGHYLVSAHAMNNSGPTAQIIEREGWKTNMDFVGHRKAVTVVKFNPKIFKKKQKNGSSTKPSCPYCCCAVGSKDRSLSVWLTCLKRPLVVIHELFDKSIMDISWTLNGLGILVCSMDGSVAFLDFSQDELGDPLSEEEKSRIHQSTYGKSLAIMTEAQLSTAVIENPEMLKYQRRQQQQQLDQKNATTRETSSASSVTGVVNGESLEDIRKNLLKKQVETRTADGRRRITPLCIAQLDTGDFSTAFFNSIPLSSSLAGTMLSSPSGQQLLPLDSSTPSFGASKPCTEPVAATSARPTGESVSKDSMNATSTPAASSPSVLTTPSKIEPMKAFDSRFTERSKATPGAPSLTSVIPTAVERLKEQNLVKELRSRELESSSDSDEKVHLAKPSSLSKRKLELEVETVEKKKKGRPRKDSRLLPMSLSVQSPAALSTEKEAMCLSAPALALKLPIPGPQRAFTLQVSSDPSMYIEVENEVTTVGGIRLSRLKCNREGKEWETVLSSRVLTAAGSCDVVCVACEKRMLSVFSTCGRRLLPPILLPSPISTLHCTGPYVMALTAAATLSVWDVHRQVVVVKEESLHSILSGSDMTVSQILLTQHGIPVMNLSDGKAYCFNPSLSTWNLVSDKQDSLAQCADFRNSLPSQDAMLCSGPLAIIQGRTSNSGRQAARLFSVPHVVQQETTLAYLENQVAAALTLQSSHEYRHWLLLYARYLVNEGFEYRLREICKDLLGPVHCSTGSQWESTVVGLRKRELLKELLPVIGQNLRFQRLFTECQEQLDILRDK
From the text: (§3) One of the problems that could emerge in a peptide-based detection is its specificity. To confirm whether the peptide detects correct molecule, we performed a western blot using biotin-tagged peptide, a novel approach for showing specificity. TM2 was tagged with biotin and purified by size exclusion chromatography, and was used instead of primary antibody in western blot. The blot was developed with streptavidin-HRP and ECL to get a single band at 110 kDa, as observed in antibody-based detection (Fig. 1b). The peptide was tagged to FITC and was used for immunofluorescence in comparison with HIRA antibody. The staining pattern in fixed and permeabilized oral cancer cell line HSC-4 was similar in both TM2-FITC and HIRA antibody (Fig. 1c), confirming the specificity. To rule out nonspecific binding of peptide we selected HIRA-knock out cells. So, we analyzed the specificity using mouse W9.5 (wild type) and Hira^−/− W9.5 ES cells, reported earlier. Since we designed peptides using human sequence, and the cell line is of mouse origin we compared the sequence similarity of binding region of both HIRA and H2B across the two species. […] So we anticipated that the peptide will recognize mouse HIRA as well.
(§4) Monolayer cells seeded in micro slide chamber were fixed using 4% paraformadehyde (PFA), permeabilized with 0.3% Triton X-100/PBS (PBST) and blocked with 2% serum as described previously. […]

HIRA [4] = target: T2, HIRA (Homo sapiens, UniProt P54198); assay: Immunofluorescence of fixed and permeabilized HSC-4 cells; format: cell-based; conditions: fixed (4% PFA) and permeabilized (0.3% Triton X-100) HSC-4 cells; overnight at 4 °C; confocal microscopy
T2 construct: We took oral cancer cell line HSC-4, which expresses HIRA; endogenous in cells; host or cells: HSC-4
T2 sequence (P54198 whole entry): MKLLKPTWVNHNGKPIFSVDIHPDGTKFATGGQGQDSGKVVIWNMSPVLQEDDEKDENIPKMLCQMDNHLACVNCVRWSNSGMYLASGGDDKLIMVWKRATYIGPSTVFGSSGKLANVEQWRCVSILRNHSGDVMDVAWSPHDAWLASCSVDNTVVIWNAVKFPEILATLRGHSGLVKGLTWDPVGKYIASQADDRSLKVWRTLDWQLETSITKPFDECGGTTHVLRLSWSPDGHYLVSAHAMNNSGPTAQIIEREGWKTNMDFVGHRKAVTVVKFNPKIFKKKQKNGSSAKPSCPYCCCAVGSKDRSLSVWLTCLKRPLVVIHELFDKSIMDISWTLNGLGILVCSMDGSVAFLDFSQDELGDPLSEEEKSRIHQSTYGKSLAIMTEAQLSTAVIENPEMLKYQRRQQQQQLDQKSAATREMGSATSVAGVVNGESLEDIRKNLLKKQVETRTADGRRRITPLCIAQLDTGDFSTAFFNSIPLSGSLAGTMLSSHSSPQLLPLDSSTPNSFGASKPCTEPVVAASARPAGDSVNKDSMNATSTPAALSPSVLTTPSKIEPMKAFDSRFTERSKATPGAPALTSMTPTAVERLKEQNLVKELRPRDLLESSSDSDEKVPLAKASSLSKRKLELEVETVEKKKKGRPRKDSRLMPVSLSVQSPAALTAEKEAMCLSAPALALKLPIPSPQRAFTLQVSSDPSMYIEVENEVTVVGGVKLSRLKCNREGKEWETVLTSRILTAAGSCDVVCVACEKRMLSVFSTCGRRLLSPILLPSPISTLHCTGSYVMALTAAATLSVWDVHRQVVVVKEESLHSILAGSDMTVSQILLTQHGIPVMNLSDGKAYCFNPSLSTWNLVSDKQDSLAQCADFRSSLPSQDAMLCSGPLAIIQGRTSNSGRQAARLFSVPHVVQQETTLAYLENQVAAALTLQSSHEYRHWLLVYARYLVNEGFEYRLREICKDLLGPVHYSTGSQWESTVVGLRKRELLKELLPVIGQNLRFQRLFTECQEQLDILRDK
From the text: as §3, §4

[5] = test system: HSC-4 cells and Hira-/- ES cells; assay: FACS of live HSC-4 / Hira-/- ES cell mixture dual stained with TM2-FITC and CD44-PE; format: cell-based
From the text: (§5) Since TM2-FITC binds to its target in live cells without any permeabilizing agents, we sought the possibility of its use in live sorting. We tried to separate HIRA expressing cells from HIRA deficient cells using FACS. We took oral cancer cell line HSC-4, which expresses HIRA, and mixed with Hira^−/− ES cells in 2.5:1 ratio. […] These cells were sorted out as positive and negative populations with gates P2 and P3 and were allowed to grow for 5 days in 8-well chamber slide. The DIC images confirm that the positive population was HSC-4 keratinocytes and the negative population was ES cells (Fig. 3b). Again wild type ES cells and Hira^−/− ES cells were mixed in 1:1 ratio and sorted as mentioned before. […] These cells grown in slide chambers were stained with antibodies for HIRA and an epithelial marker, CD44. […] The cross contamination in P3 population for the mixture of null and wild type ES cells was <4%. Since 5 days of growth in ES culture medium might give a selection advantage for ES cells over the contaminating keratinocytes, another FACS was performed to check the false positivity and negativity. HSC-4 cells and Hira^−/− ES cells were stained alone or in mixture with the TM2-FITC and CD44-PE and analyzed by FACS. […] The false positivity that we observed in P4 population could be overcome by a stringent gating as we have done in Fig 3. To further ascertain the false positivity in sorting based on TM2-FITC, the mixture of two cell types were separated for HIRA a positivity as shown in Fig. 4d. The positive population was analyzed for possible cross contamination for ES cells as shown by CD44 negativity. […] Comparing the cost of peptide synthesis with antibody development, this method is more cost effective than conventional antibodies. In future, the strategy can be improved by modifications that increases the retention time of the peptide, to ensure more purity. We argue that this approach will have immense use in cell biology, developmental biology and clinical applications.
Figure 4 Specificity of TM2-FITC live sorting. (a) The FACS profiles of live HSC-4 cells and ES cells alone or in a mixture stained with TM2-FITC and CD44-PE. The two populations in P2 and P4 gate were selected for CD44 positivity. (b) Sorted cells were further analyzed for HIRA positivity (c) The dual stained cells were separated for both FITC and PE. The positivity of different populations is marked. (d) The mixture of two cell types were separated for HIRA positivity and the P2 population was further analyzed for CD44 positivity.
(§6) FACS analysis was performed as reported previously. […]

[6] = test system: wild type ES cells and Hira-/- ES cells; assay: Live sorting of a mixture of wild type and Hira-/- ES cells; format: cell-based, mouse
From the text: as §5, §6

HSC-4 cells [7] = assay: FACS of live HSC-4 cells stained with the peptide; format: cell-based, human
Method: as §1, §2

[8] = test system: HSC-4 cells and Hira-/- ES cells; assay: Live sorting of a mixture of HSC-4 cells and Hira-/- ES cells; format: cell-based
From the text: Since TM2-FITC binds to its target in live cells without any permeabilizing agents, we sought the possibility of its use in live sorting. We tried to separate HIRA expressing cells from HIRA deficient cells using FACS. We took oral cancer cell line HSC-4, which expresses HIRA, and mixed with Hira^−/− ES cells in 2.5:1 ratio. […] These cells were sorted out as positive and negative populations with gates P2 and P3 and were allowed to grow for 5 days in 8-well chamber slide. The DIC images confirm that the positive population was HSC-4 keratinocytes and the negative population was ES cells (Fig. 3b). Again wild type ES cells and Hira^−/− ES cells were mixed in 1:1 ratio and sorted as mentioned before. […] These cells grown in slide chambers were stained with antibodies for HIRA and an epithelial marker, CD44. […] The cross contamination in P3 population for the mixture of null and wild type ES cells was <4%. Since 5 days of growth in ES culture medium might give a selection advantage for ES cells over the contaminating keratinocytes, another FACS was performed to check the false positivity and negativity. HSC-4 cells and Hira^−/− ES cells were stained alone or in mixture with the TM2-FITC and CD44-PE and analyzed by FACS. […] The positive population was analyzed for possible cross contamination for ES cells as shown by CD44 negativity. […]

[9] = mixture of live HSC-4 and Hira-/- ES cells, TM2-FITC and CD44-PE, Fig. 4b

For PKKGSKKAVTKAQKKDGA-NH2 [TM2], the “cell permeability / internalization” value (HSC-4 cells [1]) was “cell permeable”.
In the case of “TM2-FITC: TM2 peptide tagged to FITC, used for immunofluorescence, FACS and live sorting (PKKGSKKAVTKAQKKDGA-NH2; also: FITC, site not given here)”, the “live uptake pattern in ES cells” value [2] is reported as “limited to the wild type ES cells”, the “staining of HIRA-/- ES cells (specificity)” value (HIRA [3]) is reported as “absence of staining” and the “cell permeability / internalization” value (HSC-4 cells [1]) is reported as “internalized without permeabilization”. For the same substance, the “staining pattern compared with HIRA antibody” value (HIRA [4]) was “similar”, the “false positive ratio in dual staining” value ([5]; dual stained cells separated for both FITC and PE, Fig. 4c) was 0.6% and the “HIRA positivity of CD44+ population (P2)” value [5, 9] was 82%. For the same substance, the “false HIRA positivity of Hira-/- ES cells (CD44 negative, P4)” value [5, 9] was 2.7%, the “false positive ratio (CD44 negative cells in the HIRA positive population)” value ([5]; mixture separated for HIRA positivity, P2 population analysed for CD44, Fig. 4d) was 0.9% and the “viability of sorted ES cells” value ([6]; cells sorted live with TM2-FITC, grown 5 days in 8-well chamber slide, DIC images) was “viable and formed colonies in 5 days”. For the same substance, the “observed ratio of positivity (gate P2)” value ([6]; live wild type ES and Hira-/- ES cells mixed 1:1 (1x10^5 / 1x10^5), expected 50%, FACS) was 49.6%, the “cross contamination in sorted P3 (negative) population” value ([6]; mixture of null and wild type ES cells, sorted cells grown 5 days, stained with HIRA antibody) was less than 4% and the “signal after washing with peptide free solution” value (HSC-4 cells [7]; live HSC-4 cells stained with the peptide, FACS) was “loss of the signal”. The “cells positive for HIRA” value (HSC-4 cells [7]; live HSC-4 cells, no permeabilization, peptide in 75 μl PBS for 1 h, diluted with 200 μl PBS, FACS Aria II) was 85%, the “HIRA positive cells observed (gate P2)” value ([8]; live HSC-4 and Hira-/- ES cells mixed 2.5:1 (2.5x10^5 / 1x10^5), expected 71.4%, FACS) was 65.7% and the “contamination of sorted P3 (negative) population by CD44+HIRA+ cells” value ([8]; sorted cells grown 5 days in 8-well chamber slide, stained with HIRA and CD44 antibodies) was less than 1%.
